The subject of assay [1] is KPC pancreatic cancer cells. The experiment in a line: Treatment of orthotopic pancreatic tumor model. It counts as in vivo, mice. The conditions noted are these: 25 days; cGAMP-MPs three doses at days 0, 4, 8; cGAMP-S single high dose (30 μg) with EPs. The method, then:
A small incision was made to exteriorize the spleen and pancreas of C57BL/6 female mice. 5×10^5 KPC cells in 50 μL of PBS and Matrigel (1:1 mixture by volume) were injected into the tail of the pancreas. cGAMP-MPs (10 μg of cGAMP-S, 5 PLGA-1 microdevices containing 10 μg of cGAMP and 5 PLGA-2 microdevices containing 10 μg of cGAMP) or 1×cGAMP-S plus EPs (30m of cGAMP-S, 5 each of empty PLGA-1 and PLGA-2 microdevices) in 50 μL MC solution were also injected into the tail of the pancreas. The wound was then closed by an autoclip wound clip system. Mice were euthanized 25 days after tumor inoculation. The tumors were isolated and weighted by a balance. Metastasis to lungs was evaluated by H&E staining of lung sections.

The test system of assay [2] is apoptotic cells in B16F10 tumors. The experiment in a line: TUNEL staining of tumor sections. Format: in vivo, mice. The settings on record: cGAMP-MPs single injection, cGAMP-S three injections. The method, then:
Tumor sections (5 μm) were fixed with 4% paraformaldehyde, blocked with 3% bovine serum albumin, and permeabilized with 0.1% Triton X-100 in PBS. The tumor sections were then incubated with anti-CD8 alpha antibody (1:200, Abcam, cat. no. ab217344) at 4° C. overnight and goat anti-rabbit IgG H&L (Alexa Fluor® 488) (1:1000, Abcam, cat. no. ab150077) secondary antibody at room temperature for 1 h. Apoptotic tumor cells were stained using a in situ cell death detection kit (Roche) according to the manufacturer's instructions. Images were acquired on a Nikon A1R Ultra-Fast Spectral Scanning Confocal Microscope (Shinagawa, Tokyo).

The test system of assay [3] is B16F10 melanoma tumors. In words: Treatment of B16F10 melanoma tumors. Format: in vivo, mice. The settings on record: single injection of high-dose cGAMP-S (40 μg) and EP. How it is done: 2×10^5 4 T1 or 2×10^5 B16F10 cells were subcutaneously injected to the right rear flank of BALB/c mice or C57BL/6 female mice respectively. For orthotopic 4T1 model, 2×10^5 4 T1 cells were injected into the mammary fat pad. Seven days after tumor injection, B16F10 tumor-bearing mice were divided into 6 experimental groups (n=8 for each group): untreated, 1×empty microdevices(EP), 1×cGAMP-S plus EPs, 1×collagen gel, 4×cGAMP-S, and 1×cGAMP-S plus cGAMP-MPs, respectively (FIG. 3D). For the 4×cGAMP-S group, mice were intratumorally administered with 10 μg of cGAMP in 50 μL MC solution (cGAMP-S) at days 0, 4, 8, and 11 to replicate the four doses of soluble cGAMP. The overall does of cGAMP were 40 μg per mouse throughout the treatment period. […] Tumor size was measured every other day starting at day 7 post tumor inoculation with a digital caliper. Tumor volume was calculated using the following formula: length (mm)×width^2 (mm)×0.5. […]
Mice bearing B16F10 tumors were treated with the following 4 experimental groups (n=8): untreated, 1×EPs, 3×cGAMP-S, and 1×cGAMP-S plus cGAMP-MPs, respectively (FIG. 4A). […] The protein content in the supernatant was quantified using a bicinchoninic acid protein assay kit (Thermo Fisher Scientific, MA, USA). […]

For assay [4], the system named is interleukin-6 (IL-6). The experiment in a line: Systemic IL-6 response of orthotopic 4T1 tumor-bearing mice. It counts as in vivo. The settings on record: day 1 to 7; cGAMP-MPs single injection, cGAMP-S four injections.

Structures are written as SMILES.

As for `Nc1nc2c(ncn2[C@@H]2O[C@@H]3COP(=O)(O)O[C@H]4[C@@H](O)[C@H](n5cnc6c(N)ncnc65)O[C@@H]4COP(=O)(O)O[C@H]3[C@H]2O)c(=O)[nH]1` [cGAMP-S, 3′3′-cGAMP], in assay [1], the metastasis to lungs result is “did not show benefits” and the “primary tumor growth in the pancreas” value is “did not show benefits”. In addition, the “apoptotic cells (TUNEL)” value in assay [2] is recorded as “greater abundance of apoptotic cells”. For the same compound, the tumor growth entry in assay [3] is recorded as “exhibited an antitumor effect at early time points but failed to achieve sustained tumor inhibition”. For the same compound, in assay [3] (untreated 21 days), the survival time was determined as 25 days. In addition, the “systemic IL-6 levels” value in assay [4] is “elevated”.

The record behind these values is patent publication US12390537B2, “Compositions of polymeric microdevices and methods of use thereof in cancer immunotherapy” (Massachusetts Institute of Technology, priority 2020, dated 2025).
